As usually defined, the IC50 is the concentration needed to halve the response being measured. The low end stands for inhibition by little substance, the high end for a need for much substance.

This note sets out measurements from ChEMBL document CHEMBL1123177, “1H NMR configurational correlation for retro-inverso dipeptides: application to the determination of the absolute configuration of "enkephalinase" inhibitors. Relationships between stereochemistry and enzyme recognition” (J Med Chem, 1986).

The assay deals with Neprilysin (Oryctolagus cuniculus) (UniProt P08049). In words: Concentration for 50% inhibition of activity of rabbit kidney enkephalinase.
Sequence of Neprilysin (Oryctolagus cuniculus) (P08049 whole entry, looked up): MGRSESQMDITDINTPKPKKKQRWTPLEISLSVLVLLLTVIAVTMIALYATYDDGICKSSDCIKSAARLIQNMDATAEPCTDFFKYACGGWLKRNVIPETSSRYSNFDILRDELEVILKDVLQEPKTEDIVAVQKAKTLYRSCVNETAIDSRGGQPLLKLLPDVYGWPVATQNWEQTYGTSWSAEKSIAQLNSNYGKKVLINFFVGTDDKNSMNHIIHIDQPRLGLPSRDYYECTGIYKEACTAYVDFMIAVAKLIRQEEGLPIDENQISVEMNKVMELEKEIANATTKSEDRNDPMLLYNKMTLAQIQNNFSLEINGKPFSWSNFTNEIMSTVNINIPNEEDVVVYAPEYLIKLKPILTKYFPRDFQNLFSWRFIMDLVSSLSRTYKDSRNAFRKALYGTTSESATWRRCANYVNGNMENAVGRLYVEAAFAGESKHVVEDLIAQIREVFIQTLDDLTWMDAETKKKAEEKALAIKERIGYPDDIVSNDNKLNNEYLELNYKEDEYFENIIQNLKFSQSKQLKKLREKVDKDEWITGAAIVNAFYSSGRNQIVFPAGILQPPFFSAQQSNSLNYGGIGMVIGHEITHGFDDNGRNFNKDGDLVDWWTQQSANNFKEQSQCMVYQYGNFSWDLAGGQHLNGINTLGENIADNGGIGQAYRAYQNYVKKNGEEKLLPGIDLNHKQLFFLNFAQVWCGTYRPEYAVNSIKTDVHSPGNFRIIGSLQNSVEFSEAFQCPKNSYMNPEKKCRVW
On to `O=C(O)CC(=O)NC(CS)Cc1ccccc1` (single isomer, unassigned; 7b), for which half-maximal inhibition (IC50) required 210 nM.
For the compound `C[C@H](C(=O)O)C(=O)N[C@H](CS)Cc1ccccc1`, 0.65 nM corresponded to half-maximal inhibition (IC50).
Compound `C[C@@H](C(=O)O)C(=O)N[C@H](CS)Cc1ccccc1` (racemic) showed an IC50 of 0.54 nM.
As for `CC(C)C[C@H](C(=O)O)C(=O)N[C@H](CS)Cc1ccccc1`, the half-inhibitory concentration (IC50) turned out to be 0.75 nM.
Next, `O=C(O)CC(=O)NC(CS)Cc1ccccc1` (single isomer, unassigned; 7a): 2.3 nM; `CC(C)C[C@@H](C(=O)O)C(=O)N[C@H](CS)Cc1ccccc1` (racemic): 1.5 nM.
